#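 All cell lines were grown in 96-well plates and treated with compound for 48 hours. Abbreviation: GI50, concentration required for 50% inhibition of growth. Definition used: TGI = concentration required for complete inhibition of growth.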
# Assays:
# Experiment in all cases: NCI anticancer screen, dose series, 48 h
# [1] = test system: CCRF-CEM leukemia
# [2] = test system: NCI/ADR-RES ovarian
# [3] = test system: DU-145 prostate
# [4] = test system: SK-OV-3 ovarian
# [5] = test system: SK-MEL-2 melanoma
# [6] = test system: M14 melanoma
# [7] = test system: HCT-15 colon
# [8] = test system: SF-268 CNS
# [9] = test system: PC-3 prostate
# [10] = test system: HT29 colon
# [11] = test system: LOX IMVI melanoma
# [12] = test system: SK-MEL-5 melanoma
# [13] = test system: SW-620 colon
# [14] = test system: UACC-62 melanoma
# [15] = test system: ACHN renal
# [16] = test system: K-562 leukemia
# [17] = test system: MOLT-4 leukemia
# [18] = test system: UACC-257 melanoma
# [19] = test system: MALME-3M melanoma
# [20] = test system: UO-31 renal
# [21] = test system: SK-MEL-28 melanoma
# [22] = test system: OVCAR-5 ovarian
# [23] = test system: HCC-2998 colon
# [24] = test system: SF-539 CNS
# [25] = test system: EKVX NSCLC
# [26] = test system: NCI-H460 lung
# [27] = test system: NCI-H23 lung
# [28] = test system: 786-0 renal
# [29] = test system: HL-60(TB) leukemia
# [30] = test system: HOP-62 NSCLC
# [31] = test system: KM12 colon
# [32] = test system: HCT-116 colon
# [33] = test system: HS 578T breast
# [34] = test system: MCF7 breast
# [35] = test system: HOP-92 NSCLC
# [36] = test system: IGROV1 ovarian
# [37] = test system: BT-549 breast
# [38] = test system: T-47D breast
# [39] = test system: RXF 393 renal
# [40] = test system: NCI-H226 lung
# [41] = test system: OVCAR-4 ovarian
# [42] = test system: NCI-H522 lung
# [43] = test system: SN12C renal
# [44] = test system: COLO 205 colon
# [45] = test system: A498 renal
# [46] = test system: U251 CNS
# [47] = test system: OVCAR-8 ovarian
# [48] = test system: RPMI-8226 leukemia
# [49] = test system: SR leukemia
# [50] = test system: MDA-MB-435
# [51] = test system: TK-10 renal
# [52] = test system: SNB-75 CNS
# [53] = test system: MDA-MB-231 breast
# [54] = test system: SF-295 CNS
# [55] = test system: A549 NSCLC
# [56] = test system: CAKI-1 renal
# [57] = test system: SNB-19 CNS
smiles,measurement,setting,value
CC[C@]12CC(C(=O)OC)=C3Nc4ccccc4[C@@]34CCN(C14)[C@@H]1c3cc4c(cc3O[C@@H]1[C@H]2O)NC1=C(C(=O)OC)C[C@@]2(CC)C3N(CC[C@@]143)C[C@H]1O[C@H]12 (some centres not stated),GI50,[1],590 nM
same,TGI,[1],> 50000 nM
same,GI50,[2],290 nM
same,TGI,[2],> 50000 nM
same,GI50,[3],1850 nM
same,TGI,[3],> 50000 nM
same,GI50,[4],296 nM
same,GI50,[5],537 nM
same,TGI,[5],5040 nM
same,GI50,[6],423 nM
same,TGI,[6],> 20600 nM
same,GI50,[7],160 nM
same,TGI,[7],6400 nM
same,GI50,[8],1270 nM
same,TGI,[8],> 50000 nM
same,GI50,[9],403 nM
same,TGI,[9],> 50000 nM
same,GI50,[10],226 nM
same,TGI,[10],> 25400 nM
same,GI50,[11],167 nM
same,TGI,[11],721 nM
same,GI50,[12],583 nM
same,TGI,[12],1320 nM
same,GI50,[13],840 nM
same,TGI,[13],> 20700 nM
same,GI50,[14],89.5 nM
same,TGI,[14],1180 nM
same,GI50,[15],320 nM
same,TGI,[15],5650 nM
same,GI50,[16],220 nM
same,TGI,[16],> 50000 nM
same,GI50,[17],912 nM
same,TGI,[17],> 50000 nM
same,GI50,[18],363 nM
same,TGI,[18],10200 nM
same,GI50,[19],504 nM
same,TGI,[19],21000 nM
same,GI50,[20],148 nM
same,TGI,[20],> 50000 nM
same,GI50,[21],974 nM
same,TGI,[21],> 50000 nM
same,GI50,[22],614 nM
same,TGI,[22],> 50000 nM
same,GI50,[23],492 nM
same,TGI,[23],1700 nM
same,GI50,[24],417 nM
same,TGI,[24],> 50000 nM
same,GI50,[25],600 nM
same,TGI,[25],> 50000 nM
same,GI50,[26],812 nM
same,TGI,[26],> 30700 nM
same,GI50,[27],632 nM
same,TGI,[27],> 36200 nM
same,GI50,[28],274 nM
same,TGI,[28],> 50000 nM
same,GI50,[29],86.2 nM
same,TGI,[29],> 50000 nM
same,GI50,[30],201 nM
same,TGI,[30],> 50000 nM
same,GI50,[31],636 nM
same,TGI,[31],> 50000 nM
same,GI50,[32],367 nM
same,TGI,[32],2840 nM
same,GI50,[33],337 nM
same,TGI,[33],> 50000 nM
same,GI50,[34],109 nM
same,TGI,[34],> 50000 nM
same,GI50,[35],134 nM
same,TGI,[35],2070 nM
same,GI50,[36],349 nM
same,TGI,[36],> 50000 nM
same,GI50,[37],889 nM
same,TGI,[37],8260 nM
same,GI50,[38],616 nM
same,TGI,[38],> 50000 nM
same,GI50,[39],483 nM
same,TGI,[39],1900 nM
same,GI50,[40],509 nM
same,TGI,[40],> 11300 nM
same,GI50,[41],548 nM
same,TGI,[41],> 50000 nM
same,GI50,[42],224 nM
same,TGI,[42],2930 nM
same,GI50,[43],641 nM
same,TGI,[43],> 50000 nM
same,GI50,[44],278 nM
same,TGI,[44],1010 nM
same,GI50,[45],193 nM
same,TGI,[45],1160 nM
same,GI50,[46],738 nM
same,TGI,[46],4720 nM
same,GI50,[47],480 nM
same,TGI,[47],> 50000 nM
same,GI50,[48],185 nM
same,TGI,[48],1440 nM
same,GI50,[49],183 nM
same,TGI,[49],> 50000 nM
same,GI50,[50],370 nM
same,TGI,[50],8770 nM
same,GI50,[51],130 nM
same,TGI,[51],3060 nM
same,GI50,[52],97.2 nM
same,GI50,[53],311 nM
same,TGI,[53],> 50000 nM
same,GI50,[54],317 nM
same,TGI,[54],> 50000 nM
same,GI50,[55],510 nM
same,TGI,[55],> 44400 nM
same,GI50,[56],122 nM
same,TGI,[56],> 20400 nM
same,GI50,[57],443 nM
same,TGI,[57],> 50000 nM

# From PubChem BioAssay (NCI)
